What is called IC50 is the concentration needed to halve the response being measured.

The values below come from patent US10730826B2, “Ketone inhibitors of lysine gingipain” (CORTEXYME, INC., priority 2016, dated 2020).

In series [1] the target is T1, Kgp (Porphyromonas gingivalis (Bacteroides gingivalis), UniProt Q51817). Kind of series: Biotin activity probe pull-down of Kgp from P. gingivalis lysate. The format is binding. Conditions: streptavidin beads, Western blot with CAB102, FIG. 8. The procedure: P. gingivalis W83 was lysed with B-Per buffer for 15 min at 4° C. […] 5 mg of streptavidin-beads were incubated with all samples for 1 hr at room temperature on an inverting platform. The beads were collected after 1 hr and heated at 100° C. for 5 min with 0.1% SDS to disrupt biotin-streptavidin binding. The resulting supernatants were analyzed by SDS-PAGE and Western blotting for specific detection of Kgp with CAB102 (FIG. 8).
(In general: Immunoblotting shows a protein as a band on a membrane.)

Series [2] deals with T1, Kgp. Kind of series: Activity probe labelling of Kgp in P. gingivalis-infected Jurkat cells (SDS-PAGE). Format: cell-based. The text has this: The identity of this labeled protein in P. gingivalis-infected cells was confirmed to be Kgp by Western blot.
For series [3], the target named is Cathepsin L (Homo sapiens (Human), UniProt P07711). Kind of series: Cathepsin L inhibition assay. Format: biochemical. The settings on record: read-out: IC50 (nM) CatL. The procedure:
(§1) The capacities of compounds of the present invention to inhibit the activity of cathepsins B, H, K, L, and S were measured in similar assays. Boc-Leu-Arg-Arg-AMC (20 μM) in sodium acetate buffer (50 mM, pH 5.5) containing DTT (1 mM) and EDTA (2 mM) was used for the Cathepsin B assay. L-Arg-AMC (20 μM) in sodium acetate buffer (50 mM, pH 5.5) containing DTT (1 mM) and EDTA (2 mM) was used for the Cathepsin H assay. Z-Phe-Arg-AMC (10 μM) in HEPES buffer (50 mM, pH 7.4) containing DTT (2.5 mM) and EDTA (1 mM) was used for the Cathepsin K assay. Z-Phe-Arg-AMC (20 μM) in sodium acetate buffer (50 mM, pH 5.5) containing DTT (1 mM) and EDTA (2 mM) was used for the Cathepsin L assay. Z-Leu-Arg-AMC (10 μM) in sodium acetate buffer (25 mM, pH 4.5) containing DTT (2.5 mM) and NaCl (50 mM) was used for the Cathepsin S assay. The capacities of the compounds to inhibit the activity of cathepsins F, V, and Z were also measured.
(§2) Further assays to measure the inhibitory activity of compounds of the present invention against Kgp and cathepsins B, H, K, L, and S were conducted as described in Example 66. The capacities of the compounds to inhibit the activity of cathepsins F, V, and Z were also measured.

The target in series [4] is cathepsin F (Homo sapiens (Human), UniProt Q9UBX1). The experiment in a line: Cathepsin F inhibition assay. The settings on record: Table 4; read-out: IC50 (nM) CatF. Format: biochemical. How it is done:
as §1, §2

Series [5] concerns the target Cathepsin B (Homo sapiens (Human), UniProt P07858). The experiment in a line: Cathepsin B inhibition assay. Format: biochemical. Conditions: read-out: IC50 (nM) CatB. The procedure: as §1, §2
For series [6], the target named is cathepsin V (Homo sapiens (Human), UniProt O60911). Kind of series: Cathepsin V inhibition assay. Format: biochemical. Conditions: Table 4; read-out: IC50 (nM) CatV. How it is done: as §1, §2
The target of series [7] is Cathepsin S (Homo sapiens (Human), UniProt P25774). Kind of series: Cathepsin S inhibition assay. The format is biochemical. Conditions: read-out: IC50 (nM) CatS. How it is done: as §1, §2
Series [8] deals with cathepsin Z (Homo sapiens (Human), UniProt Q9UBR2). The experiment in a line: Cathepsin Z inhibition assay. Conditions: Table 4; read-out: IC50 (nM) CatZ. The format is biochemical. The procedure:
as §1, §2

The target of series [9] is Cathepsin H (Homo sapiens (Human), UniProt P09668). The experiment in a line: Cathepsin H inhibition assay. The format is biochemical. Conditions: read-out: IC50 (nM) CatH. The procedure:
as §1, §2

The target of series [10] is Cathepsin K (Homo sapiens (Human), UniProt P43235). Kind of series: Cathepsin K inhibition assay. Format: biochemical. The settings on record: read-out: IC50 (nM) CatK. The procedure: as §1, §2
Series [11] concerns the target T2, Kgp (Porphyromonas gingivalis (strain ATCC 33277 / DSM 20709 / CIP 103683 / JCM 12257 / NCTC 11834 / 2561), UniProt B2RLK2). Kind of series: Buccal cell staining with activity probe. Format: cell-based, human. The settings on record: 1 μM probe, 1 hr, 37° C., FIG. 7. The procedure: Cells were incubated for 1 hr at 37° C. and pelleted. Cells were resuspended in 20 μL of PBS and placed on poly-L-lysine coated slides, washed, and dried. Slides were mounted with antifade mounting media containing DAPI and visualized under a fluorescence microscope.

Series [12] addresses Kgp in P. gingivalis W83 bacteria (Porphyromonas gingivalis (Bacteroides gingivalis), UniProt Q51817). The experiment in a line: Bacterial smear staining with gingipain activity probes. The format is cell-based. Conditions: 1 μM probe, 1 hr, 37° C.; no signal in Kgp knockout. How it is done:
Bacteria were then pelleted and resuspended in 20 μl of PBS, which was dropped onto a poly-L-lysine coated slide and kept in a dark box at room temperature for about 2 hrs in order for the droplet to dry. The slide was then washed 3 times in PBS. Slides were mounted with a mounting media containing DAPI stain for bacterial DNA and visualized under fluorescence microscopy.

The target in series [13] is T2, Kgp. Kind of series: Gingival tissue staining with activity probe. Conditions: patient with periodontal disease, FIG. 5B. Details: species or system human. How it is done: Slides of fresh frozen gingival tissue (5 micron thickness) were removed from a −80° C. freezer and thawed at RT for 10 min. […] Slides were then washed three times in PBS, 5 min each, then fixed in fresh 4% PFA for 15 min at RT, then washed again three times in PBS. Then slides were incubated with a 1× working Trueblack solution (Biotium) for 30 min at RT. Slides were then washed three times in PBS and mounted with anti-fade mounting media containing DAPI (FIG. 5B).

For series [14] the following is noted: in vivo, po; cited from earlier work.

Where two headings read alike, the source gives them in different places.

As for `NCCCCC(NC(=O)c1cccc(-n2cc(CNC(=O)CCCC[C@@H]3SC[C@@H]4NC(=O)N[C@@H]43)nn2)c1)C(=O)COc1c(F)cccc1F` (some centres unmarked) [Compound 51a], the “amount of P. gingivalis from which Kgp was pulled down and detected” value in [1] is given as “at least 10^6 CFU”.
In the case of `C[N+]1=C(/C=C/C=C/C=C2\N(CCCCCC(=O)NCc3cn(-c4cccc(C(=O)N[C@@H](CCCCN)C(=O)COc5c(F)cccc5F)c4)nn3)c3ccc(S(=O)(=O)O)cc3C2(C)C)C(C)(C)c2cc(S(=O)(=O)O)ccc21` [Compound 70], the “blocking of probe 15a binding to Kgp by preincubation” value in [2] (infected Jurkat cells, preincubation before probe 15a) was “blocked the binding of the probe 15a to Kgp”.
`NCCCC[C@H](NC(=O)C1CCCC1)C(=O)COc1c(F)c(F)cc(F)c1F` (stereo in doubt) [Compound 73, N-[7-amino-2-oxo-1-(2,3,5,6-tetrafluorophenoxy)heptan-3-yl]cyclopentanecarboxamide, reference compound]: the 50% inhibitory concentration (IC50) in series [3] (Table 3) turned out to be 700 nM; in series [3] (Table 4), 700 nM; in [4] it was 500 nM; in series [5] (Table 3) it was 485 nM; in series [5] (Table 4) it was 485 nM; in series [6], 5720 nM. The IC50 in series [7] (Table 3) is 9980 nM; in series [7] (Table 4), over 10000 nM; in [8], over 10000 nM; in series [9] (Table 3), 110 nM; in [9] (Table 4) it was 110 nM; in series [10] (Table 3) it was 20 nM. Besides, in [10] (Table 4), the IC50 came to 20 nM.
Consider `CC1=CC(C)=[N+]2C1=Cc1ccc(CCC(=O)NCc3cn(-c4cccc(C(=O)NC(CCCCN)C(=O)COc5c(F)cccc5F)c4)nn3)n1[B-]2(F)F` (centres unmarked) [Compound 15a], for which, in series [2] (purified Kgp and infected Jurkat cells, FIG. 6A), the “binding of probe to Kgp” value was “irreversibly binds to purified Kgp”. Besides, the “staining of buccal cells” value in series [11] is “pronounced, punctate staining”. The “fluorescence of W83 bacteria after exposure to probe” value in series [12] is “fluorescent”. Also, in series [13], the “fluorescence signal in gingival tissue section” value is “yields a fluorescence signal”.
Take `CN(NC(=O)CC[C@H](NC(=O)OCc1ccccc1)C(=O)N[C@@H](CCCCN)C(=O)C(=O)NCc1ccccc1)c1ccccc1` [Kyt-36]: the half-life entry in series [14] is listed as “increases the half-life”.
